Here are results for 5 compounds from ChEMBL document CHEMBL1909046, “DrugMatrix in vitro pharmacology data”.

The target of the first assay is Sodium-dependent noradrenaline transporter (Homo sapiens, UniProt P23975). Put plainly: DRUGMATRIX: Norepinephrine Transporter radioligand binding (ligand: [125I] RTI-55). As to conditions: Not Active = under 50% inhibition at 10 µM; read-out: IC50. Format: cell membranes, MDCK, Membrane.
Sodium-dependent noradrenaline transporter, sequence (P23975 whole entry): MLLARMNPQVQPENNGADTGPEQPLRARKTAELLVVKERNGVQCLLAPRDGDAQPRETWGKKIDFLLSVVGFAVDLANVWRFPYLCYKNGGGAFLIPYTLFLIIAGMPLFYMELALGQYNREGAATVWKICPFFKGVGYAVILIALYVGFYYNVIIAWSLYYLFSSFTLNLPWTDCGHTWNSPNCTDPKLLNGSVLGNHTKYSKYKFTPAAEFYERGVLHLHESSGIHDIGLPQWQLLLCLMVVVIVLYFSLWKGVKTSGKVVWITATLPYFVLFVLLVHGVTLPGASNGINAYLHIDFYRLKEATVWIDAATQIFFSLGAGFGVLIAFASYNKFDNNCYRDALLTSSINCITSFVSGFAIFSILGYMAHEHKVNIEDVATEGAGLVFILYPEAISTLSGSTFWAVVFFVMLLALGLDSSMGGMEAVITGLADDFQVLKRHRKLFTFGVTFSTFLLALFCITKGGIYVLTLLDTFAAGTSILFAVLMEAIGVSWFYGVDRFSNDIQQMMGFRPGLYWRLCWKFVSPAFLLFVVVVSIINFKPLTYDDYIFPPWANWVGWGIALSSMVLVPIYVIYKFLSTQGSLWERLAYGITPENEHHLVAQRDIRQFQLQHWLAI
For the compound `CC[C@]1(O)CC[C@H]2[C@@H]3CCC4=CCCC[C@@H]4[C@H]3CC[C@@]21C`, the IC50 was 2100 nM.

Still in this assay, the particulars now being: Not Active = under 50% inhibition at 10 µM; read-out: Ki.
For `CC[C@]1(O)CC[C@H]2[C@@H]3CCC4=CCCC[C@@H]4[C@H]3CC[C@@]21C`, the Ki is 2080 nM.

Still in this assay, the particulars now being: mdck; Not Active = under 50% inhibition at 10 µM.
As for `Nn1nnc2ccccc21`, the IC50 result was “Not Active”.
For `N[C@@H](Cc1ccc(F)cc1)C(=O)O`, the 50% inhibitory concentration (IC50) entry is on record as “Not Active”.
Regarding `CCOC(=O)[C@H](CCc1ccccc1)N[C@@H](C)C(=O)N1Cc2ccccc2C[C@H]1C(=O)O`, the IC50 entry is recorded as “Not Active”.
Take `O=C(c1ccccc1Cl)N1CCC(Cc2ccccc2)CC1`: the IC50 result is on record as “Not Active”.

The target in a further assay is 5-hydroxytryptamine receptor 2B (Homo sapiens, UniProt P41595). It is filed as cell membranes, CHO-K1, Membrane. The note with it: cho-k1. Note: in other assays of this panel Not Active means under 50% inhibition at 10 µM.
5-hydroxytryptamine receptor 2B, sequence (P41595 whole entry): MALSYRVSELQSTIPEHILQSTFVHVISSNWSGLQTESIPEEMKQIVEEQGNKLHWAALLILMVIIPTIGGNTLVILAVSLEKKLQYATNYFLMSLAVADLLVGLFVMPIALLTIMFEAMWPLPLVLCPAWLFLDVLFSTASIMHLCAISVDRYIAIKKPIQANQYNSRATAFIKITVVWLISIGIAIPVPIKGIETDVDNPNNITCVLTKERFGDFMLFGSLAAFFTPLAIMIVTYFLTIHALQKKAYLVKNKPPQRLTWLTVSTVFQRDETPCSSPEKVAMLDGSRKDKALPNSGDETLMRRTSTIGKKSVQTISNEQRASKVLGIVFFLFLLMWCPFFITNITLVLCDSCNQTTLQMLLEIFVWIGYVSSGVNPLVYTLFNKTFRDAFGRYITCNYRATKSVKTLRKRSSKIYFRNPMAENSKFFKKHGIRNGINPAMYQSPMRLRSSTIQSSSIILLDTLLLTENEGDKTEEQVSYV
Turning to `Nn1nnc2ccccc21`, the IC50 entry was “Not Active”.
Take `CC[C@]1(O)CC[C@H]2[C@@H]3CCC4=CCCC[C@@H]4[C@H]3CC[C@@]21C`: the IC50 result was “Not Active”.
On to `N[C@@H](Cc1ccc(F)cc1)C(=O)O`, for which the IC50 result is “Not Active”.
`CCOC(=O)[C@H](CCc1ccccc1)N[C@@H](C)C(=O)N1Cc2ccccc2C[C@H]1C(=O)O`: the IC50 entry is recorded as “Not Active”.

Staying with this assay, now noted: read-out: IC50.
In the case of `O=C(c1ccccc1Cl)N1CCC(Cc2ccccc2)CC1`, the IC50 turned out to be 1510 nM.

The assay is the same for the next values; noted with them: read-out: Ki.
For the compound `O=C(c1ccccc1Cl)N1CCC(Cc2ccccc2)CC1`, the Ki was 960 nM.

In a further assay the target is T1, Cysteinyl leukotriene receptor 1 (Homo sapiens, UniProt Q9Y271). Note: in other assays of this panel Not Active means under 50% inhibition at 10 µM.
T1 sequence (Q9Y271 whole entry): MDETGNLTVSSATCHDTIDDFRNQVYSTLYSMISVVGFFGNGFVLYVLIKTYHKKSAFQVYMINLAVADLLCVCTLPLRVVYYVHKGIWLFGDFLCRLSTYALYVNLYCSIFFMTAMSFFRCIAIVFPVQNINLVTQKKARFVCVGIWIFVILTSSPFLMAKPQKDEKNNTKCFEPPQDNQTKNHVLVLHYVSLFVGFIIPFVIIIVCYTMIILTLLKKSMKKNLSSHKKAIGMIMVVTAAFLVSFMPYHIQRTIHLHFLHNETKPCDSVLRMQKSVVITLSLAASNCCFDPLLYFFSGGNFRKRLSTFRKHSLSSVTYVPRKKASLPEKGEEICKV
It is filed as cell membranes, Membrane. The note with it: cho-k1.
Take `Nn1nnc2ccccc21`: the IC50 entry is on record as “Not Active”.
In the case of `CC[C@]1(O)CC[C@H]2[C@@H]3CCC4=CCCC[C@@H]4[C@H]3CC[C@@]21C`, the IC50 result was “Not Active”.
`N[C@@H](Cc1ccc(F)cc1)C(=O)O`: the 50% inhibitory concentration (IC50) entry is “Not Active”.
As for `CCOC(=O)[C@H](CCc1ccccc1)N[C@@H](C)C(=O)N1Cc2ccccc2C[C@H]1C(=O)O`, the IC50 entry is recorded as “Not Active”.
For `O=C(c1ccccc1Cl)N1CCC(Cc2ccccc2)CC1`, the IC50 result is given as “Not Active”.

The next assay concerns the target T2, Amine oxidase [flavin-containing] A (Homo sapiens, UniProt P21397).
T2 sequence (P21397 whole entry): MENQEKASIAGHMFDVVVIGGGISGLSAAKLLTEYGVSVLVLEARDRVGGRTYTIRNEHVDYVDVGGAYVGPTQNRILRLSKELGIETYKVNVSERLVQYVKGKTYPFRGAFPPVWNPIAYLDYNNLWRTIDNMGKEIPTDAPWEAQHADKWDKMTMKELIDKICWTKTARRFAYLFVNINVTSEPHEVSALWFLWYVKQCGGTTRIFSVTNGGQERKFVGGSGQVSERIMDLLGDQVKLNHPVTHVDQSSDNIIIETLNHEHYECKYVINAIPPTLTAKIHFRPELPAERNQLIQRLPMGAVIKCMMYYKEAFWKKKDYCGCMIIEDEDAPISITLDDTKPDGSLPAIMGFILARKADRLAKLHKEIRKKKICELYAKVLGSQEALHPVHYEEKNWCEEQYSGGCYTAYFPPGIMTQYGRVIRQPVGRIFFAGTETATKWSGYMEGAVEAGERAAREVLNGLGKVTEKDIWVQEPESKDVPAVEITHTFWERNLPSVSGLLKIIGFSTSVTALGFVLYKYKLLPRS
Put plainly: DRUGMATRIX: Monoamine Oxidase MAO-A enzyme inhibition (substrate: Kynuramine). Also noted: species or system BTI-TN-5B1-4. The note with it: bti-tn-5b1-4; Not Active = under 50% inhibition at 10 µM.
Consider `Nn1nnc2ccccc21`, for which the IC50 result is listed as “Not Active”.
On to `CC[C@]1(O)CC[C@H]2[C@@H]3CCC4=CCCC[C@@H]4[C@H]3CC[C@@]21C`, for which the half-maximal inhibitory concentration (IC50) entry is reported as “Not Active”.
As to `N[C@@H](Cc1ccc(F)cc1)C(=O)O`, the half-inhibitory concentration (IC50) result was “Not Active”.
Regarding `CCOC(=O)[C@H](CCc1ccccc1)N[C@@H](C)C(=O)N1Cc2ccccc2C[C@H]1C(=O)O`, the IC50 result is “Not Active”.
Turning to `O=C(c1ccccc1Cl)N1CCC(Cc2ccccc2)CC1`, the IC50 result is listed as “Not Active”.

In a further assay the target is Protein phosphatase 3 catalytic subunit alpha (Homo sapiens, UniProt Q08209). Also noted: species or system Escherichia coli.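 Note: inhibition of calcineurin (PP2B) enzyme activity, measured with DiFMUP as the substrate; in other assays of this panel Not Active means under 50% inhibition at 10 µM.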
Conditions: not given
Regarding `Nn1nnc2ccccc21`, the IC50 result is on record as “Not Active”.
Regarding `CC[C@]1(O)CC[C@H]2[C@@H]3CCC4=CCCC[C@@H]4[C@H]3CC[C@@]21C`, the IC50 entry was “Not Active”.
On to `N[C@@H](Cc1ccc(F)cc1)C(=O)O`, for which the IC50 entry is “Not Active”.
Same read-out and setting: the same measure for `CCOC(=O)[C@H](CCc1ccccc1)N[C@@H](C)C(=O)N1Cc2ccccc2C[C@H]1C(=O)O`: “Not Active”; for `O=C(c1ccccc1Cl)N1CCC(Cc2ccccc2)CC1`: “Not Active”.

System in another assay: not listed separately
The experiment in a line: DRUGMATRIX: Purinergic P2X radioligand binding (ligand: [3H] alpha, beta-Methylene-ATP). Format: cell membranes, Oryctolagus cuniculus, New Zealand albino, Urinary bladder, Membrane. As to conditions: Not Active = under 50% inhibition at 10 µM.
On to `Nn1nnc2ccccc21`, for which the half-maximal inhibitory concentration (IC50) result was “Not Active” and the Ki result is on record as “Not Active”.
As for `CC[C@]1(O)CC[C@H]2[C@@H]3CCC4=CCCC[C@@H]4[C@H]3CC[C@@]21C`, the half-inhibitory concentration (IC50) result is reported as “Not Active” and the inhibitory constant (Ki) entry is listed as “Not Active”.
On to `N[C@@H](Cc1ccc(F)cc1)C(=O)O`, for which the IC50 result is given as “Not Active” and the Ki entry was “Not Active”.
Regarding `CCOC(=O)[C@H](CCc1ccccc1)N[C@@H](C)C(=O)N1Cc2ccccc2C[C@H]1C(=O)O`, the IC50 entry is reported as “Not Active” and the Ki entry is listed as “Not Active”.
As to `O=C(c1ccccc1Cl)N1CCC(Cc2ccccc2)CC1`, the IC50 result is given as “Not Active” and the Ki result is given as “Not Active”.

In a further assay the target is Estrogen receptor beta (Homo sapiens, UniProt Q92731). As to conditions: sf9. Note: in other assays of this panel Not Active means under 50% inhibition at 10 µM.
Estrogen receptor beta, sequence (Q92731 whole entry): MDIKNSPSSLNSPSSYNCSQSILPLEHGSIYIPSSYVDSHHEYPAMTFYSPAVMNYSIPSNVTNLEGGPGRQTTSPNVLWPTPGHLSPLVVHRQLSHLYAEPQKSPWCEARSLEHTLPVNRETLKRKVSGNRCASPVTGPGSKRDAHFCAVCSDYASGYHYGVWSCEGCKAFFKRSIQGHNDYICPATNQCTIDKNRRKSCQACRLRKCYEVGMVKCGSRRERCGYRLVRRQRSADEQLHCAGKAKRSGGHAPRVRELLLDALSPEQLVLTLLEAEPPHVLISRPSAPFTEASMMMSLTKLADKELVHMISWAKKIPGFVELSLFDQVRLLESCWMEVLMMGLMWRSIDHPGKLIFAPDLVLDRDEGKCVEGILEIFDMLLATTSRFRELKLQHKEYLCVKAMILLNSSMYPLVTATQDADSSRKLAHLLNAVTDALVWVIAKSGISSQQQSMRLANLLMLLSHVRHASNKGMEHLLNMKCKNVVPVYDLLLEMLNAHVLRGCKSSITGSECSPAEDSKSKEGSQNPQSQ
On to `Nn1nnc2ccccc21`, for which the IC50 result was “Not Active”.
Same read-out and setting: the same measure for `CC[C@]1(O)CC[C@H]2[C@@H]3CCC4=CCCC[C@@H]4[C@H]3CC[C@@]21C`: “Not Active”.
Still for that read-out and setting: the same measure for `N[C@@H](Cc1ccc(F)cc1)C(=O)O`: “Not Active”; for `CCOC(=O)[C@H](CCc1ccccc1)N[C@@H](C)C(=O)N1Cc2ccccc2C[C@H]1C(=O)O`: “Not Active”; for `O=C(c1ccccc1Cl)N1CCC(Cc2ccccc2)CC1`: “Not Active”.

As usually defined, the IC50 is the concentration that inhibits the measured activity by half. The term Ki denotes the dissociation constant of the complex between target and ligand, obtained from inhibition or displacement.
